What was measured:
Staphylococcus aureus [1] = experiment: Antimicrobial activity against Staphylococcus aureus ATCC 25923 assessed as reduction in microbial growth by CLSI based broth microdilution method; type: functional
Staphylococcus aureus [2] = experiment: Antimicrobial activity against Staphylococcus aureus ATCC 29213 assessed as reduction in microbial growth by CLSI based broth microdilution method; type: functional
Escherichia coli [3] = experiment: Antimicrobial activity against Escherichia coli 078 assessed as reduction in microbial growth by CLSI based broth microdilution method; type: functional
[4] = Antimicrobial activity against Salmonella enterica subsp. enterica serovar Pullorum ATCC 7913 assessed as reduction in microbial growth by CLSI based broth microdilution method; type: functional
Salmonella typhimurium [5] = experiment: Antimicrobial activity against Salmonella typhimurium ATCC 7731 assessed as reduction in microbial growth by CLSI based broth microdilution method; type: functional, Salmonella enterica subsp. enterica serovar Typhimurium; settings: Salmonella enterica
Escherichia coli [6] = experiment: Antimicrobial activity against Escherichia coli ATCC 25922 assessed as reduction in microbial growth by CLSI based broth microdilution method; type: functional
Escherichia coli [7] = experiment: Antimicrobial activity against Escherichia coli K88 assessed as reduction in microbial growth by CLSI based broth microdilution method; type: functional
Enterococcus faecalis = experiment: Antimicrobial activity against Enterococcus faecalis ATCC 29212 assessed as reduction in microbial growth by CLSI based broth microdilution method; type: functional
[8] = tested on: Staphylococcus epidermidis; experiment: Antimicrobial activity against Staphylococcus epidermidis ATCC 12228 assessed as reduction in microbial growth by CLSI based broth microdilution method; type: functional
Escherichia coli [9] = experiment: Antimicrobial activity against Escherichia coli UB 1005 assessed as reduction in microbial growth by CLSI based broth microdilution method; type: functional
Pseudomonas aeruginosa = experiment: Antimicrobial activity against Pseudomonas aeruginosa ATCC 27853 assessed as reduction in microbial growth by CLSI based broth microdilution method; type: functional
Escherichia coli [10] = experiment: Antimicrobial activity against Escherichia coli K99 assessed as reduction in microbial growth by CLSI based broth microdilution method; type: functional
Salmonella typhimurium [11] = experiment: Antimicrobial activity against Salmonella typhimurium ATCC 14028 assessed as reduction in microbial growth by CLSI based broth microdilution method; type: functional, Salmonella enterica subsp. enterica serovar Typhimurium; settings: Salmonella enterica
Staphylococcus aureus [12] = experiment: Antimicrobial activity against Staphylococcus aureus 43300 assessed as reduction in microbial growth by CLSI based broth microdilution method; type: functional
Escherichia coli [13] = experiment: Drug resistance, ratio of MIC for Escherichia coli ATCC 25922 after 30 passages to MIC for Escherichia coli ATCC 25922 […] after initial exposure; type: functional

Compound	MIC (Staphylococcus aureus [1]) [µg/mL]	MIC (Staphylococcus aureus [2]) [µg/mL]	MIC (Escherichia coli [3]) [µg/mL]	MIC [4] [µg/mL]	MIC (Salmonella typhimurium [5]) [µg/mL]	MIC (Escherichia coli [6]) [µg/mL]	MIC (Escherichia coli [7]) [µg/mL]	MIC (Enterococcus faecalis) [µg/mL]	MIC [8] [µg/mL]	MIC (Escherichia coli [9]) [µg/mL]	MIC (Pseudomonas aeruginosa) [µg/mL]	MIC (Escherichia coli [10]) [µg/mL]	MIC (Salmonella typhimurium [11]) [µg/mL]	MIC (Staphylococcus aureus [12]) [µg/mL]	Ratio (Escherichia coli [13])
CC(C)c1ccc(C=O)cc1 [CUMINALDEHYDE]	8190	4100	16400	8190	8190	8190	16400	2050	8190	16400	8190	8190	8190	2050	–
O=C(O)c1cn(C2CC2)c2cc(N3CCNCC3)c(F)cc2c1=O [CIPROFLOXACIN]	–	–	–	–	–	–	–	–	–	–	–	–	–	–	2
Cc1ccc(C(C)C)cc1O [CARVACROL]	128	128	128	128	128	256	256	256	128	256	128	128	128	256	–
Cc1ccc(C(C)C)c(O)c1 [THYMOL]	256	256	64	256	128	256	128	256	128	256	256	256	256	256	–
